# ChEMBL document CHEMBL5385865, “Discovery and optimization of 2-(trifluoromethyl)benzimidazole derivatives as novel ferroptosis inducers in vitro and in vivo” (Eur J Med Chem, 2023)
# Calls of active or inactive are those of the source. The rule behind the calls is not given here.
# How the values were obtained:
# [1] = Toxicity in human AC16 cells upto 20 uM incubated for 48 hrs by MTT assay; type: cell-based; details: ac16 [human hybrid]
# HT-1080 [2] = assay: Induction of ferroptosis in human HT-1080 cells assessed as shrinkage of mitochondria at 5 uM incubated for 24 hrs by TEM analysis; type: functional, cell-based
# HT-1080 [3] = assay: Induction of ferroptosis in human HT-1080 cells assessed as increase in SLC7A11 mRNA level incubated for 18 hrs by qPCR analysis; type: functional, cell-based; details: dose 0.5-5 µM
# [4] = Metabolic stability in human liver microsomes assessed as intrinsic clearance measured per mg protein at 1 uM in presence of NADPH by LC-MS analysis; type: ADME, Microsome; details: read-out: CLH
# [5] = Metabolic stability in […] rat microsomes assessed as half life at 1 uM in presence of NADPH by LC-MS analysis; type: ADME, Liver, Microsome
# HT-1080 [6] = assay: Induction of ferroptosis in human HT-1080 cells overexpressing SLC7A11 assessed as increase in lipid peroxidation by BODIPY-C11 probe based confocal laser scanning microscopy; type: functional, cell-based
# DU-145 [7] = assay: Lethality in human DU-145 cells assessed as decrease in cell viability at 10 uM incubated for 48 hrs by MTT assay; type: functional, cell-based
# HT-1080 [8] = assay: Induction of ferroptosis in human HT-1080 cells assessed as increase in lipid ROS accumulation at 5 uM incubated for 10 hrs by BODIPY-C11 probe based confocal laser scanning microscopy; type: functional, cell-based
# HT-1080 [9] = assay: Induction of ferroptosis in human HT-1080 cells assessed as cell death at 10 uM incubated for 24 hrs in presence of Nec-1 by MTT assay; type: functional, cell-based
# HT-1080 [10] = assay: Induction of ferroptosis in human HT-1080 cells assessed as increase in cytosolic ROS accumulation at 5 uM incubated for 10 hrs in presence of Fer-1 by H2DCFDA probe based flow cytometry; type: functional, cell-based
# MDA-MB-231 [11] = assay: Lethality in human MDA-MB-231 cells assessed as inhibition of cell viability incubated for 24 hrs by MTT assay; type: functional, cell-based; details: MDA-MB-231, 24 h
# [12] = Toxicity in BALB/c nude mouse xenografted with human HepG2 cells assessed as histological change in liver at 15 to 30 mg/kg, ip administered every other day for 21 days by H and E staining based analysis; type: organism-based; details: in vivo, 504 h, dose 15-30 mg/kg, time 21 day
# HT-1080 [13] = assay: Induction of ferroptosis in human HT-1080 cells assessed as cell death at 5 uM incubated for 6 hrs in presence of ferric ammonium citrate by fluorescent microscopy; type: functional, cell-based
# [14] = Toxicity in BALB/c nude mouse xenografted with human HepG2 cells assessed as effect on serum CK level at 15 to 30 mg/kg, ip administered every other day for 21 days; type: organism-based; details: in vivo, 504 h, dose 15-30 mg/kg, time 21 day
# [15] = Toxicity in BALB/c nude mouse xenografted with human HepG2 cells assessed as effect on serum TBIL level at 15 to 30 mg/kg, ip administered every other day for 21 days; type: organism-based; details: in vivo, 504 h, dose 15-30 mg/kg, time 21 day
# DU-145 [16] = assay: Lethality in human DU-145 cells assessed as decrease in cell viability at 10 uM incubated for 48 hrs in presence of Fer-1 by MTT assay; type: functional, cell-based
# HT-1080 [17] = assay: Induction of ferroptosis in human HT-1080 cells assessed as cell death at 10 uM incubated for 24 hrs in presence of Z-VAD-FMK by MTT assay; type: functional, cell-based
# [18] = Toxicity in BALB/c nude mouse xenografted with human HepG2 cells assessed as body weight loss at 15 to 30 mg/kg, ip administered every other day for 21 days; type: organism-based; details: in vivo, 504 h, dose 15-30 mg/kg, time 21 day
# HepG2 [19] = assay: Lethality in human HepG2 cells assessed as decrease in cell viability at 10 uM incubated for 48 hrs by MTT assay; type: functional, cell-based
# [20] = biological target: T1, Phospholipid hydroperoxide glutathione peroxidase GPX4 (Homo sapiens) (UniProt P36969); assay: Inhibition of GPX4 in human HT-1080 cells at 10 to 40 uM incubated for 12 hrs; type: cell-based; details: dose 10-40 µM
# T1 sequence (whole entry): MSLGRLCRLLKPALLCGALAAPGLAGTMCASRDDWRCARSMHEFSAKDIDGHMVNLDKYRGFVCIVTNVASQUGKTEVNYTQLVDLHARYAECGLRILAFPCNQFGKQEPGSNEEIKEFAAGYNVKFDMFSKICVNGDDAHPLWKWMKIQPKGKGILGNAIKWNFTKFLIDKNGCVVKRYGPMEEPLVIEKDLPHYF
# HepG2 [21] = assay: Lethality in human HepG2 cells assessed as decrease in cell viability at 10 uM incubated for 48 hrs in presence of Fer-1 by MTT assay; type: functional, cell-based
# A-375 [22] = assay: Lethality in human A-375 cells assessed as decrease in cell viability at 10 uM incubated for 48 hrs in presence of Fer-1 by MTT assay; type: functional, cell-based
# HepG2 [23] = assay: Inhibition of cell proliferation in human HepG2 cells xenografted in BALB/c nude mouse at 15 to 30 mg/kg, ip administered every other day for 21 days by Ki67 staining based IHC analysis; type: functional, organism-based; details: dose 15-30 mg/kg, time 21.0 day
# [24] = Toxicity in BALB/c nude mouse xenografted with human HepG2 cells assessed as histological change in heart at 15 to 30 mg/kg, ip administered every other day for 21 days by H and E staining based analysis; type: organism-based; details: in vivo, 504 h, dose 15-30 mg/kg, time 21 day
# [25] = Toxicity in BALB/c nude mouse xenografted with human HepG2 cells assessed as effect on serum LDH level at 15 to 30 mg/kg, ip administered every other day for 21 days; type: organism-based; details: in vivo, 504 h, dose 15-30 mg/kg, time 21 day
# [26] = Metabolic stability in human liver microsomes assessed as half life at 1 uM in presence of NADPH by LC-MS analysis; type: ADME, Microsome
# HeLa [27] = assay: Lethality in human HeLa cells assessed as decrease in cell viability at 10 uM incubated for 48 hrs in presence of DFO by MTT assay; type: functional, cell-based
# [28] = Metabolic stability in rat liver microsomes assessed as intrinsic clearance measured per mg protein at 1 uM in presence of NADPH by LC-MS analysis; type: ADME, Microsome; details: read-out: CLH
# MDA-MB-231 [29] = assay: Lethality in human MDA-MB-231 cells assessed as decrease in cell viability at 10 uM incubated for 48 hrs in presence of Fer-1 by MTT assay; type: functional, cell-based
# DU-145 [30] = assay: Lethality in human DU-145 cells assessed as inhibition of cell viability incubated for 24 hrs by MTT assay; type: functional, cell-based; details: DU-145, 24 h
# 786-0 = assay: Lethality in human 786-0 cells assessed as decrease in cell viability at 10 uM incubated for 48 hrs in presence of Fer-1 by MTT assay; type: functional, cell-based
# A-375 [31] = assay: Lethality in human A-375 cells assessed as inhibition of cell viability incubated for 24 hrs by MTT assay; type: functional, cell-based; details: A-375, 24 h
# HeLa [32] = assay: Lethality in human HeLa cells assessed as decrease in cell viability at 10 uM incubated for 48 hrs in presence of Fer-1 by MTT assay; type: functional, cell-based
# HepG2 [33] = assay: Antitumor activity against human HepG2 cells xenografted in BALB/c nude mouse assessed as tumor growth inhibition at 15 mg/kg, ip administered every other day for 21 days by electronic caliper analysis relative to control; type: functional; details: HepG2, 504 h, time 21 day, read-out: TGI
structure (smiles),measurement,setting,value
CN(C)S(=O)(=O)c1ccc(N2CCC(Cn3c(C(F)(F)F)nc4ccccc43)CC2)cc1,Activity,[1],Non-Toxic
same,Activity,HT-1080 [2],Active
same,Activity,HT-1080 [3],Dose-Dependent Effect
same,microsomal CLint at 1 µM,[4],88.6 µL/min/mg
same,half-life at 1 µM,[5],10.4 min
same,Activity,HT-1080 [6],inactive
same,Activity,DU-145 [7],Active
same,Activity,HT-1080 [8],Active
same,Activity,HT-1080 [9],Active
same,Activity,HT-1080 [10],inactive
same,IC50,MDA-MB-231 [11],4340 nM
same,Activity,[12],Non-Toxic
same,Activity,HT-1080 [13],Active
same,Activity,[14],Non-Toxic
same,Activity,[15],Non-Toxic
same,Activity,DU-145 [16],inactive
same,Activity,HT-1080 [17],Active
same,Activity,[18],Non-Toxic
same,Activity,HepG2 [19],Active
same,inhibition,[20],inactive
same,Activity,HepG2 [21],inactive
same,Activity,A-375 [22],inactive
same,inhibition,HepG2 [23],Active
same,Activity,[24],Non-Toxic
same,Activity,[25],Non-Toxic
same,half-life at 1 µM,[26],15.6 min
same,Activity,HeLa [27],inactive
same,microsomal CLint at 1 µM,[28],133 µL/min/mg
same,Activity,MDA-MB-231 [29],inactive
same,IC50,DU-145 [30],1640 nM
same,Activity,786-0,inactive
same,IC50,A-375 [31],2310 nM
same,Activity,HeLa [32],inactive
same,inhibition in vivo at 15 mg/kg,HepG2 [33],47.6%
